# Data from ChEMBL document CHEMBL5055654, “Discovery of 5-methylpyrimidopyridone analogues as selective antimycobacterial agents” (Bioorg Med Chem, 2021).
# Active and inactive are the calls of the source. The calls are words filed in the database; no cut-off is given here.
# Assays:
# [1] = test system: Mycobacterium tuberculosis; experiment: Antitubercular activity against Mycobacterium tuberculosis mc2 6230 assessed as inhibition of bacterial growth incubated for 7 days; format: functional; conditions: mc2 6230, 168 h, time 7 day
# [2] = test system: Escherichia coli; experiment: Antibacterial activity against Escherichia coli at 10 uM incubated for 16 hrs by microtiter reader analysis; format: functional, organism-based
# [3] = test system: Salmonella; experiment: Antibacterial activity against Salmonella at 10 uM incubated for 16 hrs by microtiter reader analysis; format: functional, organism-based
# [4] = test system: Vero; experiment: Cytotoxicity against African green monkey Vero cells assessed as reduction in cell viability measured after 72 hrs by CCK8 assay; format: cell-based; conditions: Chlorocebus sabaeus
# [5] = Binding affinity to Mycobacterium tuberculosis PknB
SMILES,MIC [1] [µM],other results
Cc1c(-c2ccccc2Cl)c(=O)n(C23CC4CC(CC(C4)C2)C3)c2nc(NC(C)C)ncc12,256,–
COc1nc2ccc(Br)cc2cc1[C@@H](c1ccccc1)[C@@](O)(CCN(C)C)c1cccc2ccccc12 [BEDAQUILINE],0.02,–
Cc1cc(Nc2ncc3c(C)c(-c4ccccc4Cl)c(=O)n(C4CCCCC4)c3n2)ccc1N1CCC(N(C)C)CC1,32,–
Cc1ccccc1-c1c(C)c2cnc(Nc3ccc(N4CCC(N(C)C)CC4)c(C)c3)nc2n(C23CC4CC(CC(C4)C2)C3)c1=O,8,–
Cc1c(-c2ccccc2Cl)c(=O)n(C23CC4CC(CC(C4)C2)C3)c2nc(NC3CCCCC3)ncc12,512,–
Cc1c(-c2ccccc2Cl)c(=O)n(C23CC4CC(CC(C4)C2)C3)c2nc(NC[C@H]3CCCO3)ncc12,> 512,–
Cc1cc(Nc2ncc3c(C)c(-c4ccccc4F)c(=O)n(C45CC6CC(CC(C6)C4)C5)c3n2)ccc1N1CCC(N(C)C)CC1,32,–
CCC(C)Nc1ncc2c(C)c(-c3ccccc3Cl)c(=O)n(C34CC5CC(CC(C5)C3)C4)c2n1 (stereo not given),512,–
Cc1c(-c2ccccc2Cl)c(=O)n(C23CC4CC(CC(C4)C2)C3)c2nc(Nc3ccc(N4CCN(C)CC4)c(OC(C)C)c3)ncc12,8,Activity [2]: inactive; Activity [3]: inactive; IC50 [4]: 4.6 µM
Cc1cc(Nc2ncc3c(C)c(-c4cccc(Cl)c4)c(=O)n(C45CC6CC(CC(C6)C4)C5)c3n2)ccc1N1CCC(N(C)C)CC1,> 512,–
Cc1cc(Nc2ncc3c(C)c(-c4ccccc4Cl)c(=O)n(C4CCCC4)c3n2)ccc1N1CCC(N(C)C)CC1,32,–
CCNc1ncc2c(C)c(-c3ccccc3Cl)c(=O)n(C34CC5CC(CC(C5)C3)C4)c2n1,256,–
Cc1c(-c2ccccc2Cl)c(=O)n(C23CC4CC(CC(C4)C2)C3)c2nc(NC3CCCC3)ncc12,265,–
Cc1cc(Nc2ncc3c(C)c(-c4ccc(Cl)cc4)c(=O)n(C45CC6CC(CC(C6)C4)C5)c3n2)ccc1N1CCC(N(C)C)CC1,> 512,–
Cc1cc(Nc2ncc3c(C)c(-c4ccccc4Cl)c(=O)n(C45CC6CC(CC(C6)C4)C5)c3n2)ccc1N1CCC(N(C)C)CC1,4,Activity [2]: inactive; Activity [3]: inactive; IC50 [4]: 2.9 µM
Cc1cc(Nc2ncc3c(C)c(-c4ccccc4C#N)c(=O)n(C45CC6CC(CC(C6)C4)C5)c3n2)ccc1N1CCC(N(C)C)CC1,16,–
Cc1cc(Nc2ncc3c(C)c(-c4ccccc4Cl)c(=O)n(C45CC6CC(CC(C6)C4)C5)c3n2)ccc1N1CCN(CCO)CC1,32,–
CCCCNc1ncc2c(C)c(-c3ccccc3Cl)c(=O)n(C34CC5CC(CC(C5)C3)C4)c2n1,512,–
Cc1cc(Nc2ncc3c(C)c(-c4ccccc4Cl)c(=O)n(C45CC6CC(CC(C6)C4)C5)c3n2)ccc1N1CCN(C)CC1,8,Activity [2]: inactive; Activity [3]: inactive; IC50 [4]: 4.8 µM

SMILES,MIC [1] [µM],other results
Cc1c(-c2ccccc2Cl)c(=O)n(C23CC4CC(CC(C4)C2)C3)c2nc(N3CCC(N4CCOCC4)CC3)ncc12,> 512,–
Cc1c(-c2ccccc2Cl)c(=O)n(C23CC4CC(CC(C4)C2)C3)c2nc(N3CC(OC(C)C)C3)ncc12,> 512,–
COc1ccccc1-c1c(C)c2cnc(Nc3ccc(N4CCC(N(C)C)CC4)c(C)c3)nc2n(C23CC4CC(CC(C4)C2)C3)c1=O,16,–
Cc1cc(Nc2ncc3c(C)c(-c4ccccc4)c(=O)n(C45CC6CC(CC(C6)C4)C5)c3n2)ccc1N1CCC(N(C)C)CC1,16,–
Cc1c(-c2ccccc2Cl)c(=O)n(C23CC4CC(CC(C4)C2)C3)c2nc(NC3CC3)ncc12,265,–
Cc1c(-c2ccccc2Cl)c(=O)n(C23CC4CC(CC(C4)C2)C3)c2nc(NCCO)ncc12,> 512,–
Cc1c(-c2ccccc2Cl)c(=O)n(C23CC4CC(CC(C4)C2)C3)c2nc(Nc3ccc(N4CCN(C)CC4)cc3)ncc12,512,–
Cc1c(-c2ccccc2Cl)c(=O)n(C23CC4CC(CC(C4)C2)C3)c2nc(N3CCC(O)CC3)ncc12,> 512,–
Cc1c(-c2ccccc2Cl)c(=O)n(C23CC4CC(CC(C4)C2)C3)c2nc(N3CCC(N(C)C)CC3)ncc12,16,–
CCOc1cc(Nc2ncc3c(C)c(-c4ccccc4Cl)c(=O)n(C45CC6CC(CC(C6)C4)C5)c3n2)ccc1N1CCN(C)CC1,8,Activity [2]: inactive; Activity [3]: inactive; IC50 [4]: 4.4 µM
COCCNc1ncc2c(C)c(-c3ccccc3Cl)c(=O)n(C34CC5CC(CC(C5)C3)C4)c2n1,> 512,–
Cc1c(-c2ccccc2Cl)c(=O)n(C23CC4CC(CC(C4)C2)C3)c2nc(N(C)CCO)ncc12,> 512,–
Cc1cc(Nc2ncc3c(C)c(-c4ccccc4Cl)c(=O)n(C45CC6CC(CC(C6)C4)C5)c3n2)ccc1N1CCC(C)CC1,> 512,–
Cc1c(-c2ccccc2Cl)c(=O)n(C23CC4CC(CC(C4)C2)C3)c2nc(N3CCN(CCO)CC3)ncc12,64,–
Cc1c(-c2ccccc2Cl)c(=O)n(C23CC4CC(CC(C4)C2)C3)c2nc(N3CCN(C)CC3)ncc12,> 512,–
COc1cc(Nc2ncc3c(C)c(-c4ccccc4Cl)c(=O)n(C45CC6CC(CC(C6)C4)C5)c3n2)ccc1N1CCN(C)CC1,8,Kd [5]: 0.75 µM
Cc1c(-c2ccccc2Cl)c(=O)n(C23CC4CC(CC(C4)C2)C3)c2nc(N3CCC(C)CC3)ncc12,> 512,–
NNC(=O)c1ccncc1 [ISONIAZID],0.2,–
